Experimental data from US20250319053A1, “INHIBITORS OF THE PEPTIDYL-PROLYL CIS/TRANS ISOMERASE (PIN1), COMBINATIONS AND USES THEREOF” (DANA-FARBER CANCER INSTITUTE, INC., priority 2021, published 2025).

Legend:
[1] = system: human PDAC cells (PDAC1 and PDAC2); assay: Cell proliferation assay (CellTiter-Glo) in PDAC cells; assay type: cell-based; conditions: PDAC cells, 72 hrs
Protocol: Cells were seeded at a density of 5000 cells (PDAC1 and PDAC2), or 3000 cells (CAF1 and CAF2) per well in 96-well flat-bottomed plates and incubated for 24 h in culture medium. […] Control cells received dimethyl sulfoxide (DMSO) at a concentration equal to that of drug-treated cells for 72 hours. The cell viability was determined by CellTiter-Glo® 2.0 Assay (Promega) following the manufacturer's instructions.

Pin1 = Pin1 (Homo sapiens, UniProt Q13526); assay: Immunoblotting for Pin1 and substrate oncoproteins in PDAC cells; assay type: cell-based; parameters: endogenous in cells; host or cells: primary human patient-derived PDAC cells (PDAC1, PDAC2); conditions: 72 hrs
Pin1, sequence (Q13526 whole entry): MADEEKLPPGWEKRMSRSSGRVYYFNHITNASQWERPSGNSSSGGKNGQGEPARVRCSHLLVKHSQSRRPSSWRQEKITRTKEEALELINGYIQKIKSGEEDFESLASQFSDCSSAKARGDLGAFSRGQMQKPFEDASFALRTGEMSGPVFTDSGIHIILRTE
Protocol: Cultured cells were lysed in RIPA buffer (50 mM Tris-HCl, pH 7.2, 150 mM NaCl, 1% NP40, 0.1% sodium dodecyl sulfate (SDS), 0.25% Na-deoxycholate) with freshly added phosphatase inhibitors containing 5 mM NaF and 0.2 mM sodium orthovanadate (NA3VO4), and proteinase inhibitors containing 2 μg/mL Aprotinin, 2 μg/mL Leupeptin, 2 μg/mL Pepstatin A, 1 mM DTT (dithiothreitol), 0.5 mM 4-(2-aminoethyl)-benzenesulfonyl fluoride (AEBSF), and 20 mM Chymotrypsin, and then mixed with the SDS sample buffer and loaded onto a gel after boiling for 10 minutes at 95° C. The proteins were resolved by polyacrylamide gel electrophoresis and transferred to PVDF membrane. The transferred membrane was washed three times with Tris-buffered saline containing 0.1% Tween 20 (TBST). After blocking with TBST containing 5% milk or 3% bovine serum albumin (BSA) for 1 h room temperature, the membrane was incubated with the appropriate primary antibody (diluted 1:500-1:10000) in 5% milk or 3% BSA-containing TBST at 4° C. overnight. After incubation with the primary antibody, the membrane was washed three times with TBST for a total of 30 min followed by incubation with horseradish peroxidase conjugated goat anti-rabbit or anti-mouse IgG (diluted 1:5000) for 1 h at room temperature. After three extensive washes with TBST for a total of 30 min, the immunoblots were visualized by enhanced chemi-luminescence. Immunoblotting results were quantified using ImageJ (NIH).

[2] = in humans; cited from earlier work

Row | Molecule | cell growth (proliferation assay) [1] | Pin1 and its substrate oncoproteins (IB) (Pin1) | half-life [2] [min]
1 | arsenic trioxide [ATO, reference compound] | dose-dependently suppress cell growth | ablate Pin1 | 
2 | CC1=C(/C=C/C(C)=C/C=C/C(C)=C/C(=O)O)C(C)(C)CCC1 [ATRA, all-trans retinoic acid] | dose-dependently suppress cell growth | ablate Pin1 | ~45
